Assay results published in ChEMBL document CHEMBL4229339, “Total syntheses and stereochemical reassignments of mollenines A and B” (Bioorg Med Chem Lett, 2018).
The source made the active and inactive calls.

Experiments:
Candida albicans = test: Antifungal activity against Candida albicans at 5 uM; assay type: functional, organism-based
Escherichia coli = test: Antibacterial activity against Escherichia coli at 5 uM; assay type: functional, organism-based
Bacillus cereus = test: Antibacterial activity against Bacillus cereus at 5 uM; assay type: functional, organism-based
Homo sapiens = organism: Homo sapiens; test: Cytotoxicity against human HeLa/Fucci cells at 5 uM; assay type: functional, cell-based

Measured: Activity

CC(C)=CC[C@@]12C[C@H]3C(=O)O[C@@H](CC(C)C)C(=O)N3[C@@H]1Nc1ccccc12
inactive: all assays above

CC(C)=CC[C@@]12C[C@H]3C(=O)O[C@H](CC(C)C)C(=O)N3[C@@H]1Nc1ccccc12
inactive: all assays above

CC(C)=CCC12CC3C(=O)OC(CC(C)C)C(=O)N3C1Nc1ccccc12 (stereo in doubt; (+)-7)
inactive: all assays above

CC(C)=CC[C@@]12C[C@@H]3C(=O)N[C@@H](CC(C)C)C(=O)N3[C@@H]1Nc1ccccc12
inactive: all assays above

CC(C)=CC[C@@]12C[C@H]3C(=O)O[C@@H](CC(C)C)C(=O)N3[C@@H]1N(C=O)c1ccccc12
inactive: all assays above

CC(C)=CCC12CC3C(=O)OC(CC(C)C)C(=O)N3C1Nc1ccccc12 (single isomer, unassigned; (+))
inactive: all assays above
